Measurements: patent US8012945B2, “Phage antibodies to radiation-inducible neoantigens” (Vanderbilt University, priority 2001, dated 2011)

What was measured:
[1] = system: irradiated tumors (LLC and GL261); experiment: In vivo screening of T7 phage peptide library, LLC and GL261 tumors pooled; parameters: species or system mice; conditions: for Frequency of Recovery: conserved motifs within peptides identified by in vivo screening
Procedure: GL261 murine glioma cells and Lewis lung carcinoma cells were implanted into the hind limb of C57BL6 mice (Hallahan et al., 1995b; Hallahan et al., 1998; Hallahan & Virudachalam, 1999).
For in vivo screening, tumors were irradiated with 3 Gy and approximately 10^10 phage (prepared as described in Example 4) were administered by tail vein injection into each of the tumor bearing mice at 4 hours following irradiation. Tumors were recovered at one hour following injection and amplified in BL21 bacteria. Amplified phage were pooled and re-administered to a tumor-bearing mouse following tumor irradiation. The phage pool was sequentially administered to a total of 6 animals. As a control, wild type phage lacking synthetic peptide inserts were identically administered to a second experimental group of animals.
To determine the titer of phage binding in a tumor or in normal tissue, recovered phage were amplified in BL21 bacteria. Bacteria were plated and the number of plaques present were counted. To determine the total phage output per organ, the number of plaque forming units (PFU) on each plate was divided by the volume of phage plated and the weight of each organ.
An individual phage suspension was used as template. Amplified peptides were sequenced using an ABI PRISM 377 sequencer (PE Biosystems, Foster City, Calif., United States of America).

LLC tumors = experiment: In vivo screening of T7 phage peptide library, irradiated LLC tumors; parameters: species or system mice; conditions: 3 Gy, 6 rounds of in vivo screening; for Number of Phage Recovered from LLC tumors: randomly selected phage
Procedure: (§1) A population of DNA fragments encoding recombinant peptide sequences was cloned into the T7 […] vector (Novagen, Madison, Wis., United States of America). […] The resulting reading frame requires an AAT initial codon followed by a TCX codon. The molar ratio between insert and vector was 1:1. Size-fractionated cDNA inserts were prepared by gel filtration on sepharose 4B and ranged from 27 base pairs to 33 base pairs. cDNAs were ligated by use of the DNA ligation kit (Novagen, Madison, Wis., United States of America). Recombinant T7 DNA was packaged according to the manufacturer's instructions and amplified prior to bioscreening in animal tumor models. […] GL261 murine glioma cells and Lewis lung carcinoma cells were implanted into the hind limb of C57BL6 mice ([…] et al., 1995[…] et al., 1998; […], 1999). […] Tumors were recovered at one hour following injection and amplified in BL21 bacteria. Amplified phage were pooled and re-administered to a tumor-bearing mouse following tumor irradiation. The phage pool was sequentially administered to a total of 6 animals. […] To determine the titer of phage binding in a tumor or in normal tissue, recovered phage were amplified in BL21 bacteria. Bacteria were plated and the number of plaques present were counted. To determine the total phage output per organ, the number of plaque forming units (PFU) on each plate was divided by the volume of phage plated and the weight of each organ. […] Following 6 rounds of in vivo screening, fifty recombinant phage peptides that bound within irradiated tumors were randomly selected for further analysis. The nucleic acid sequence encoding recombinant phage was amplified by PCR using primers set forth as SEQ ID NOs: 14-15 (available from Novagen, Madison, Wis., United States of America). An individual phage suspension was used as template. Amplified peptides were sequenced using an ABI PRISM 377 sequencer (PE Biosystems, Foster City, Calif., United States of America).

[2] = system: melanoma, lung carcinoma, and glioma tumor models; experiment: Binding of peptide-encoding phage in additional tumor models; format: in vivo, mice; conditions: B16F0 melanoma, Lewis lung carcinoma, GL261 glioma
Text: The binding properties of phage encoding […] (SEQ ID NO: 1), […] (SEQ ID NO: 2), […] (SEQ ID NO: 3), and NSVGSRV (SEQ ID NO: 4) were additionally characterized in a B16F0 melanoma model.

GL261 tumors = experiment: In vivo screening of T7 phage peptide library, irradiated GL261 tumors; parameters: species or system mice; conditions: 3 Gy, 6 rounds of in vivo screening; for Number of Phage Recovered from GL261 tumors: randomly selected phage
Procedure: as §1

[3] = system: P-selectin and platelet membrane glycoprotein IIB; experiment: Screening of phage-displayed scFv library on immobilized neoantigens, Western immunoblot, then in vivo screening of irradiated tumors; format: binding; conditions: recovered following in vivo screening to irradiated tumors
Procedure: A phage library comprising diverse single chain antibodies was prepared in M13 phage. Briefly, nucleotide sequences encoding antibody VL and VH regions separated by a (Gly4Ser)3 linker were fused to M13 gene III nucleotide sequences. When a recombinant M13 carrying these antibody-gene III fusions infects an appropriate host bacterium, the host produces recombinant M13 phage that display scFv antibody polypeptides (VL-linker-VH) fused to gene III protein.
The phage library was exposed to the radiation-inducible neoantigens P-selectin (also called CD62P; GENBANK™ Accession No. P98109) and/or platelet membrane glycoprotein IIB (also called CD41; GENBANK™ Accession No. P08514) immobilized on glass slides. Phage were selected based on antigen binding, and selected phage were pooled as a biased library. For representative in vitro screening methods, see Fowlkes et al., 1992; Haaparanta & Huse, 1995; Jung & Pluckthun, 1997; Peter et al., 2000; Holzem et al., 2001; Chiu et al., 2000.
Phage identified by in vitro screening were tested on Western immunoblots to confirm binding to the P-selection and platelet membrane glycoprotein IIB neoantigens. Phage that specifically bound P-selectin and platelet membrane glycoprotein IIB were subsequently used for in vivo screening of irradiated tumors as described in Example 5. Wild type phage were used as internal controls. Antibodies having substantial affinity for irradiated tumors were identified by observing an increased number of phage in the irradiated tumor when compared to a number of phage in a control organ (e.g., liver and lung). Phage antibodies with the greatest affinity for tumors were identified using the formula: number of phage in irradiated tumor/number of phage in each organ.

## NSXRGXGS [conserved motif within recovered peptides]
[1]
  Frequency of Recovery: 32%

## NSVGSRV (Artificial peptide ligand number 4)
LLC tumors
  Phage Recovered from LLC tumors (Frequency): 4%
  Number of Phage Recovered from LLC tumors: 1
[2]
  binding of phage encoding the peptide within tumor models: bound within lung carcinoma and glioma
GL261 tumors
  Phage Recovered from GL261 tumors (Frequency): 12%
  Number of Phage Recovered from GL261 tumors: 3

## NSV (Artificial peptide ligand number 10) [conserved motif within recovered peptides]
[1]
  Frequency of Recovery: 22%

## NSXR [conserved motif within recovered peptides]
[1]
  Frequency of Recovery: 32%

## NSVRGSGSGV (Artificial peptide ligand number 3)
LLC tumors
  Phage Recovered from LLC tumors (Frequency): 28%
  Number of Phage Recovered from LLC tumors: 7
[2]
  binding of phage encoding the peptide within tumor models: bound within glioma and melanoma
GL261 tumors
  Number of Phage Recovered from GL261 tumors: 0

## NXVG [conserved motif within recovered peptides]
[1]
  Frequency of Recovery: 46%

## NHVGGSSV (Artifical peptide ligand number 1)
LLC tumors
  Phage Recovered from LLC tumors (Frequency): 28%
  Number of Phage Recovered from LLC tumors: 7
[2]
  binding of phage encoding the peptide within tumor models: bound within the melanoma, lung carcinoma, and glioma tumor models
GL261 tumors
  Phage Recovered from GL261 tumors (Frequency): 48%
  Number of Phage Recovered from GL261 tumors: 12

## NSLRGDGSSV (phage-displayed; Artificial peptide ligand number 2)
LLC tumors
  Phage Recovered from LLC tumors (Frequency): 28%
  Number of Phage Recovered from LLC tumors: 7
[2]
  binding of phage encoding the peptide within tumor models: bound within the melanoma, lung carcinoma, and glioma tumor models
GL261 tumors
  Phage Recovered from GL261 tumors (Frequency): 8%
  Number of Phage Recovered from GL261 tumors: 2

## GSRV (Artificial peptide ligand number 7)
[1]; mouse, in vivo
  share of peptide sequences recovered from 6 irradiated tumors having the subsequence: 4%

## GSXV [conserved motif within recovered peptides]
[1]
  Frequency of Recovery: 78%

## RGDGSSV (Artificial peptide ligand number 6)
[1]; mouse, in vivo
  share of peptide sequences recovered from 6 irradiated tumors having the subsequence: 18%

## GSSV (Artificial peptide ligand number 13)
[1]
  Frequency of Recovery: 56%
[1]; mouse, in vivo
  phage recovered from irradiated tumors: 22-40 of 10^6 injected phage
  share of peptide sequences recovered from 6 irradiated tumors having the subsequence: 56%

B1: SEQ ID NO: 22: scFv antibody encoded by SEQ ID NO: 21 (protein)
scFv: MAQVQLQESGPGLVKPSQSLSLTCSVTGYSITSNYWGWIRKFPGNKMEWMGYISYSGSTSYNPSLKSRISITRDTSKNQLFLQLNSVTTEDTATYYCARYSLFNYGRRDYVMDAWGQGTTVTVSSGGGGSGGGGSGGGGSDIELTQSPATMAASPGEKVTITCRASSTVSYMHWFQQKPGASPKPWIYDTSKLASGVPDRFSGSGSGTDFTLTIDPVQADDIATYYCQQSKDDPRTFGGGTKLELKRRPQVRRCRIRIRWNRVPH
modifications: Nucleic acid encoding scFv antibody 4A
[3]
  neoantigen recognition: recognize the radiation-inducible neoantigens P-selectin and platelet membrane glycoprotein IIB

B2: SEQ ID NO: 18: scFv antibody encoded by SEQ ID NO: 17 (protein)
scFv: MAQVKLQQSGAELVMPGASVKMSCKASGYTFTDYWMHWVKQRPGQGLEWIGAIDTSDSYTSYNQKFKGKATLTVDESSSTAYMQLSSLTSEDSAVYYCARRGYYSAFDYWGQGTTVTVSSGGGGSGGGGSGGGGSDIELTQSPTTMAASPGEKVTITCRASSSVSYMHWFQQKSGTSPKPWIYDTSKLASGVPDRFSGSGSGTSYSLTISSMEAEDAATYYCLQRSSYPYTFGAGTKLEIKR
modifications: Artificial antibody ligand number 1
[3]
  neoantigen recognition: recognize the radiation-inducible neoantigens P-selectin and platelet membrane glycoprotein IIB

B3: SEQ ID NO: 20: scFv antibody encoded by SEQ ID NO: 19 (protein)
scFv: MAQVKLQQSGPELVKPGASVKMSCKASGYTFTSYVMHWVKQKPGQGLEWIGYINPYNDGTKYNEKFKGKAALTSDKSSSTAYMELSSLTSEDSAVYYCARFGNYGALDYWGQGTTVTVSSGGGGSGGGGSGGGGSDIELTQSPTIMSASPGEKVTITCSASSSVSYMHWFQQKPGTSPKPWIYGTSNLASGVPVRFSGSGSGTSYSLTISSMEAEDAATYYCQQWSSYPLTFGGGTKLEIKR
modifications: Artificial antibody ligand number 2
[3]
  neoantigen recognition: recognize the radiation-inducible neoantigens P-selectin and platelet membrane glycoprotein IIB

B4: SEQ ID NO: 24: scFv antibody encoded by SEQ ID NO: 23 (protein)
scFv: MAQVKLQQSGPELVKPGASVKMSCKASGYTFTSYVMHWVKQSNGKSLEWIGTIDPYYGGTSYNQKFKGKATLTVDKSSTTAYIQLKSLTSEDSAVYYCARWDGYYGGFSYWGQGTMVTVSSGGGGSGGGGSGGGGSDIELTQSPAIMSATLGEKVTMSCRASSNVKYMYWYQQKSGASPKLWIYYTSNLASGVPARFSGSGSGTSYSLTISSVEAEDAATYYCQQFTSSPYTFGSGTKLEIKRAAAGAPVPYPDPLEPRAA
modifications: nucleic acid encoding scFv antibody 10A
[3]
  neoantigen recognition: recognize the radiation-inducible neoantigens P-selectin and platelet membrane glycoprotein IIB
